# Source: patent publication US20140171490A1, “Method and Device for Ophthalmic Administration of Active Pharmaceutical Ingredients” (PHARMALIGHT INC., priority 2005, published 2014)
# Read-outs that look alike come from different tables or passages of the source.
# Columns and labels:
# beta-adrenoceptor = conditions: cited from earlier work
# [1] = tested on: human corneal epithelial cells; conditions: reported in Burgalassi et al. Tox. Lett. 2001; cited from earlier work
# eye = conditions: cited from earlier work
# [2] = design: species or system Lewis female rats; conditions: rat, in vivo
# Protocol: Animal studies were carried out on Lewis female rats (6-8 weeks of age) from Harlan Laboratories Inc. (Rehovot, Israel). In some cases as noted below, the rats were anesthetized with ketamin/xylazine […].
# ELISA tests were performed using commercially available ELISA kits from Assay Designs (Ann Arbor, Mich., USA) in accordance with the manufacturer's instructions in the usual way in conjunction with a BioTek EL-310 plate reader (Cambridge Scientific Products, Cambridge, Mass., USA).
# Pharmaceutical compositions were administered by instillation in the eyes of rats or administered as a mist using the nebulization device described above at a rate of 10 μl minute^−1. Subsequent to administration and a waiting time, the rats were sacrificed.
# Subsequent to sacrifice, serum, cerebrospinal fluid (CSF, 50-100 μl), retina, optic nerve, sclera, and aqueous humor (AH) of an animal were harvested. The retina, optic nerve, and sclera of each animal was individually homogenized in 120 ul assay buffer on ice and centrifuged. The serum, CSF, AH and the homogenized retina, optic nerve and sclera were assayed for the presence of leptin using ELISA.
# Data below is expressed as pg ml^−1 for serum, CSF and AH and as pg mg^−1 for tissue (determined using the Lowry method). […]
# [3] = reported in Saettone et al. Int. J. Pharma. 1996
compound,measurement,setting,value
"CC(C)(C)NCC(O)COc1cccc2c1CCCC2=O.Cl (single isomer, unassigned; (-)) [Levobunolol, (−)-5-[3-(tert-Butylamino)-2-hydroxypropoxy]-3,4-dihydro-1(2H)-naphthalenone hydrochloride]",potency in beta-blocking activity relative to its dextro isomer,beta-adrenoceptor,greater than 60 times
CCCCCCCCCCCCCCCC[n+]1ccccc1 [cetylpyridinium chloride],toxicity to human corneal epithelial cells relative to Brij-78 and EDTA,[1],less toxic to human corneal epithelial cells than Brij-78 but more toxic than EDTA
C[C@@H]1CC[C@@]2(OC1)O[C@H]1[C@@H](O)[C@H]3[C@@H]4CC[C@H]5C[C@@H](O[C@@H]6O[C@H](CO)[C@H](O[C@@H]7O[C@H](CO)[C@@H](O)[C@H](O[C@@H]8OC[C@@H](O)[C@H](O)[C@H]8O)[C@H]7O[C@@H]7O[C@H](CO)[C@H](O)[C@H](O[C@@H]8O[C@H](CO)[C@@H](O)[C@H](O)[C@H]8O)[C@H]7O)[C@H](O)[C@H]6O)[C@H](O)C[C@]5(C)[C@H]4CC[C@]3(C)[C@H]1[C@@H]2C [digitonin],irritation to the eye,eye; [3],strongly irritating to the eye
CC(=O)O[C@H]1C[C@@]2(C)[C@@H](C[C@@H](O)[C@H]3[C@@]4(C)CC[C@@H](O)[C@@H](C)[C@@H]4CC[C@@]32C)/C1=C(\CCC=C(C)C)C(=O)O [sodium fusidate],irritation to the eye,eye; reported in Furrer et al. AAPS PharmSci 2002,strongly irritating to the eye
BL-9,irritation to the eye,eye; [3],strongly irritating to the eye
Brij-99,irritation to the eye,"eye; reported in Morgan, J. Ocular Pharm. Ther. 1995",strongly irritation to the eye
benzalkonium chloride,toxicity to human corneal epithelial cells relative to Brij-78 and EDTA,[1],less toxic to human corneal epithelial cells than Brij-78 but more toxic than EDTA
same,irritation to the eye,eye; [3],strongly irritating to the eye
leptin,leptin concentration in optic nerve and sclera relative to retina,[2],markedly higher than in the retina
